The structures appear in SMILES notation.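 A five-concentration, 48-hour dose response in 96-well plates underlies each endpoint, interpolated linearly between surrounding concentrations. TGI: total growth inhibition.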

What all share (assay): NCI tumour cell line growth inhibition, 48 h
In assay [1] the test system is HCC-2998 colon.
Assay [2] relates to HL-60(TB) leukemia.
Assay [3] concerns HOP-62 NSCLC.
The test system of assay [4] is OVCAR-4 ovarian.
Assay [5] concerns OVCAR-8 ovarian.
Assay [6] deals with SK-MEL-2 melanoma.
The subject of assay [7] is SK-MEL-5 melanoma.
Assay [8] concerns SNB-75 CNS.

For the molecule `O=S1(=O)OCCOS(=O)(=O)C1Cc1nc2ccccc2[nH]1`, the TGI in assay [1] is > 100 µM; in assay [2] it was 88.4 µM; in assay [3], > 100 µM; in assay [4], > 100 µM; in assay [5] it was > 100 µM; in assay [6], > 100 µM. Besides, the TGI in assay [7] is > 100 µM.

As to `CC(=O)Nc1ccc(C(=O)N2N=C(C)/C(=C/c3ccc(O)cc3)C2=O)cc1`, the TGI in assay [1], in assay [2], in assay [3], in assay [4], in assay [5] and in assay [6] was > 100 µM in each case. For the same molecule, the TGI in assay [7] and in assay [8] was > 100 µM each time.

As to `OC12CCCCCC1(N1CCOCC1)c1ccccc12` (stereo unspecified), the TGI in assay [1], in assay [2], in assay [3], in assay [4], in assay [5] and in assay [6] was > 100 µM in each case. The TGI in assay [7] and in assay [8] was > 100 µM throughout.

Turning to `Nc1c(N=Nc2ccc(-c3ccc(N=Nc4c(O)ccc5cc(S(=O)(=O)O)cc(S(=O)(=O)O)c45)cc3)cc2)c(S(=O)(=O)O)cc2cc(S(=O)(=O)O)c(N=Nc3ccccc3)c(O)c12`, the TGI in assay [1], in assay [2], in assay [3], in assay [4], in assay [5] and in assay [6] was > 100 µM each time. Further, the TGI was > 100 µM in assay [7] and 90.7 µM in assay [8].

`Cc1cc2occ(-c3ccc(Cl)cc3)c2c(=O)o1`: the TGI in assay [2], in assay [3], in assay [4], in assay [5], in assay [6] and in assay [7] was > 100 µM each time. Moreover, the TGI in assay [8] is > 100 µM.

In the case of `Cc1cc(=O)[nH]c(NNC(C#N)c2ccc([N+](=O)[O-])cc2)n1` (stereo unspecified), the TGI in assay [2], in assay [3], in assay [4], in assay [5], in assay [6] and in assay [7] was > 100 µM throughout. Besides, the TGI in assay [8] was > 100 µM.

`COc1ccc(-c2c3ccccc3c(-c3ccc(OCCCCCBr)cc3)c3ccccc23)cc1`: the TGI in assay [1], in assay [2], in assay [3], in assay [4], in assay [5] and in assay [6] was > 100 µM in each case.

With `COC(=O)n1c(C[P+](c2ccccc2)(c2ccccc2)c2ccccc2)cc2ccccc21`, the TGI in assay [1] turned out to be 10.3 µM; in assay [2], 6.12 µM; in assay [3], 4.57 µM; in assay [5] it was 10.4 µM; in assay [6], 4.97 µM; in assay [7], 3.93 µM.

Turning to `CCOc1ccc(-c2oc(/C=N/NS(=O)(=O)c3ccc(C)cc3)c([N+](=O)[O-])c2-c2ccc(OCC)cc2)cc1`, the TGI in assay [1] was 31.1 µM; in assay [2], > 52.9 µM; in assay [3], > 64.3 µM; in assay [4], 25.4 µM; in assay [5], 50 µM; in assay [6], 44.8 µM. Further, the TGI in assay [7] was determined as 21.2 µM; in assay [8], 35.2 µM.

On to `CCN(CC)CCCCC1CCN(CC(=O)N2c3ccccc3NC(=O)CC2C)CC1` (stereo unspecified), for which the TGI in assay [1], in assay [2], in assay [3], in assay [4], in assay [5] and in assay [6] was > 100 µM each time. Further, the TGI in assay [7] and in assay [8] was > 100 µM in each case.

As to `CC(=O)NC1=C(NCC(C)C)C(=O)c2ccccc2C1=O`, the TGI in assay [1] is > 100 µM; in assay [2], 7.32 µM; in assay [3], > 100 µM; in assay [4], > 100 µM; in assay [5] it was 47.2 µM; in assay [6], 67.8 µM. Besides, the TGI in assay [7] was 43.6 µM; in assay [8] it was 31.1 µM.

Turning to `O=c1c2c(nc3n1CCC3)sc1c(O)c(Br)ccc12`, the TGI was 38 µM in assay [1]; 33.8 µM in assay [2]; 45.3 µM in assay [3]; 54.9 µM in assay [4]; 24.2 µM in assay [5]; 39.3 µM in assay [6]. For the same molecule, the TGI in assay [7] is 30.4 µM; in assay [8], > 100 µM.

On to `C/C(=C\Cc1cc(O)ccc1O)CCc1c(C)cc(O)c(C=O)c1C`, for which the TGI in assay [1] is > 100 µM; in assay [2], > 100 µM; in assay [4], > 100 µM; in assay [5], 33.9 µM; in assay [6], 58.6 µM; in assay [7], 31.7 µM. In addition, the TGI in assay [8] was 77.4 µM.

These data come from PubChem BioAssay (NCI).
